Values quoted from earlier work in US8911777B2, “Pharmaceutical composition of tacrolimus” (Sigmoid Pharma Limited, priority 2007, dated 2014).

Experiments:
[1] = after oral administration of conventional IR tablets
[2] = whole blood; Masuda et al. 2006

SMILES: C=CC[C@@H]1/C=C(\C)C[C@H](C)C[C@H](OC)[C@H]2O[C@@](O)(C(=O)C(=O)N3CCCC[C@H]3C(=O)O[C@H](/C(C)=C/[C@@H]3CC[C@@H](O)[C@H](OC)C3)[C@H](C)[C@@H](O)CC1=O)[C@H](C)C[C@@H]2OC [Tacrolimus]
- persistence of drug effects [1]: 8 to 12 h
- blood concentration at which adverse effects occurred [2]: higher than 15 ng/ml
